Measured values: US20250268870A1, “SMALL MOLECULE INDUCERS OF CARDIOMYOCYTES TO IMPROVE CARDIAC STRUCTURE AND FUNCTION” (UNIVERSITY OF MARYLAND, BALTIMORE, priority 2022, published 2025)

Tests used:
[1] = test system: iDCM-CMs; assay: PCNT / MTOC localization (centriolar, split, perinuclear) in C19-treated iDCM-CMs, quantitated by a blinded observer; assay type: cell-based, human; conditions: for initiation of the perinuclear MTOC: iDCM-CMs (cDCM-CMs) treated with C19
[2] = test system: iDCM-CMs; assay: Cell shortening (contractility) on Matrigel mattress, edge detection; assay type: cell-based, human
[3] = test system: iDCM-CMs; assay: Sarcomere formation in C19-treated iDCM-CMs (confocal imaging); assay type: cell-based, human; conditions: C19-treated iDCM-CMs vs untreated iDCM-CMs
[4] = test system: CMs; conditions: previously shown; cited from earlier work
[5] = test system: RTTN; assay: Knockdown of RTTN in zebrafish embryos: incidence of pericardial edema; assay type: in vivo; conditions: zebrafish embryos at 48 hours post-fertilization; Vehicle=8.4%
Procedure: Single mating pairs were bred overnight, and embryos were kept at 28.5° C., consistent with standard practices. Injections were performed using an Eppendorf™ FemtoJet 4i microinjector. Needles were pulled using a Sutter Instrument Co. Flaming/Brown Micropipette Puller Model P-97 with filaments from World Precision Instruments (Item #TW100F-4) (heat=90, pull=30, and velocity=7). The translational blocking morpholino oligonucleotide 5′-[…]-3′ (SEQ ID NO: 41) was purchased from GeneTools™. mRNA was generated from pcDNA-dCas9 (Addgene™) using the mMESSAGE mMACHINE T7 ULTRA Transcription Kit from Invitrogen™. Alt-R CRISPR-Cas9 sgRNA, sgRNA #1: 5′-[…]-3 (SEQ ID NO:42) and sgRNA #2: 5′-[…]-3′ (SEQ ID NO:43) were purchased from Integrated DNA Technologies. Wild-type NHGRI embryos were injected at the 1-2 cell stage with MO (6 ng) or dCas9 mRNA (1 ng) with or without the CRISPRi sgRNA (0.5 ng). At 8 hours post fertilization (hpf), E3 water was replaced with 0.003% 1-phenyl-2-thiourea (PTU) in E3, and the embryos remained in PTU until they were phenotyped for cardiac edema, and heart morphology at 48 hpf.

| Compound | initiation of the perinuclear MTOC [1] | initiation of the perinuclear MTOC ([1]; listed as C192) | PCNT perinuclear, % of CMs ([1]; iDCM-CMs + 10 μM C19 for 48 hours from D30, D32 CMs, control-CMs 23.1%, untreated iDCM-CMs 7.6%, p=0.0082) [%] | cell shortening versus healthy control-CMs ([2]; D40 C19-treated iDCM-CMs vs control-CMs, p=0.682 (NS)) | contractility (% cell shortening) ([2]; D40 C19-treated iDCM-CMs vs untreated iDCM-CMs, p=0.001) | sarcomere formation [3] | centrosome reduction in CMs [4] | embryos with large pericardial edema [5] [%] |
| --- | --- | --- | --- | --- | --- | --- | --- | --- |
| OCCCCOc1nsnc1-c1ccc(Cl)c(Cl)c1 [C19] | improved initiation of the perinuclear MTOC | restored initiation of the perinuclear MTOC | 23.6 | comparable levels of cell shortening | significantly improved | improved sarcomere formation | induce centrosome reduction |  |
| MO: translational blocking morpholino oligonucleotide 5′-TCTTTATGAGTGACGATAACTCCAT-3′ (SEQ ID NO: 41) against zebrafish RTTN (all phosphorodiamidate morpholino (PMO)) |  |  |  |  |  |  |  | 45.6 |
